Data from article doi:10.1101/472670v4 (biorxiv, 2019).

Assays:
[1] = target: T1, PTP1B (human recombinant, kit BML-AK822) (Homo sapiens, UniProt P18031); test: colorimetric malachite green; type: biochemical; conditions: read-out: % inhibition at 10 µM
T1 sequence (P18031 1-322 limits assumed): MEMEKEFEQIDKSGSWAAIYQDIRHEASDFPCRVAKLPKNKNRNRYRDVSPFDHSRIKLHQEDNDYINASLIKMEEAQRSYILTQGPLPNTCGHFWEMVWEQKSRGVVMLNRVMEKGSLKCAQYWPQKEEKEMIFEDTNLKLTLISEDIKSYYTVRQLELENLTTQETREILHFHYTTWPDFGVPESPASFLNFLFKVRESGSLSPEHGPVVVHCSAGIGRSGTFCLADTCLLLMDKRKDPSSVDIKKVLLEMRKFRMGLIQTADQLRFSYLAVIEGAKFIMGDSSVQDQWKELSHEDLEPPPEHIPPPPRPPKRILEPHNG

[2] = target: T1, PTP1B (human recombinant, kit BML-AK822); test: biochemical; conditions: read-out: % inhibition at 10 µM
[3] = target: T1, PTP1B (human recombinant, kit BML-AK822); test: colorimetric malachite green; type: biochemical
[4] = target: T1, PTP1B (human recombinant, kit BML-AK822); test: Lineweaver-Burk with slope replot; type: biochemical

SMILES | inhibition at 10 µM [1] [%] | inhibition at 10 µM [2] [%] | IC50 [3] [µM] | Ki [4] [µM]
COc1ccc(C(=O)N(C2=NCCS2)c2ccccc2C(F)(F)F)cc1 [II, compound II] | 48 | – | – | –
Cc1ccc(-c2csc(N(C(=O)c3ccc(Cl)cc3)c3ccc(F)cc3)n2)cc1 [compound 15] | 35.2 | – | – | –
COc1ccc(-c2csc(N(C(=O)c3ccc(Cl)cc3)c3ccc(F)cc3)n2)cc1 [compound 18] | – | 56.9 | 8.8 | –
O=C(c1ccc(Cl)cc1)N(c1ccc(F)cc1)c1nc(-c2ccccc2)cs1 [compound 21] | 37.2 | – | – | –

Further lines, results first:

inhibition at 10 µM [1] [%] | inhibition at 10 µM [2] [%] | IC50 [3] [µM] | Ki [4] [µM] | SMILES
33 | – | – | – | Cc1ccc(-c2csc(N(C(=O)CCc3ccccc3)c3ccc(F)cc3)n2)cc1 [compound 16]
– | 60.3 | – | – | Cc1ccc(-c2csc(N(C(=O)Cc3ccccc3)c3ccc(F)cc3)n2)cc1 [compound 17]
– | 74.7 | – | – | COc1ccc(-c2csc(N(C(=O)CCc3ccccc3)c3ccc(F)cc3)n2)cc1 [compound 19]
– | 69 | – | – | O=C(CCc1ccccc1)N(c1ccc(F)cc1)c1nc(-c2ccccc2)cs1 [compound 22]
– | 69.9 | 6.9 | – | COc1ccc(CCN(C(=O)CCc2ccccc2)c2nc(-c3ccc(OC)cc3)cs2)cc1 [compound 37]
– | 76.6 | 5.8 | 8.59 | COc1ccc(CCN(C(=O)Cc2ccccc2)c2nc(-c3ccc(OC)cc3)cs2)cc1 [compound 38]
